Results on 2 compounds are retold here after patent US8501166B2, “Pyrimidinyl indole compounds” (Hutchison Medipharma Limited, priority 2010, dated 2013).

Structures can show the parent of a compound that is named as a salt.

For assay [1], the system named is collagen induced arthritis. The assay can be described thus: Rat collagen II induced arthritis (CIA) model. Type of assay: in vivo, Wistar Rats. Conditions: 30 mg/kg oral bid, day 1 to day 21. The method, then: To confirm the results obtained in mouse CIA model, the compound is also tested in a CIA model in rat essentially as described in a method reported in the literature (Rosloniec E F, Cremer M, Kang A, Myers L K. Current Protocols in Immunology. 1996, 15.5.1-15.5.24). Briefly, Wistar Rats are immunized intradermally with 200 μg bovine collagen II emulsified in Freund's […] on day 0 and with 100 μg collagen II emulsified in IFA (incomplete Freund's adjuvant) on day 7. The hind paw volume is measured before and after the immunization. The disease development of four paws is quantified with arthritis scores. Rats in normal and model groups are treated with vehicle or drug (treated group). Rats in treated group are orally administered with the testing compound at doses of 3, 10, 30 mg/kg (bid), from day 1 to day 21 after the first immunization. In the LEF group, as a positive control, rats are orally administered with LEF at a dose of 10 mg/kg, q.d.

In a further assay the test system is PLP-139-151 induced EAE. The assay can be described thus: Mouse experimental autoimmune encephalomyelitis (EAE) model. It is filed as in vivo, SJL/J mice.
Another assay relates to DNBS-induced colitis. The assay can be described thus: DNBS-induced colitis in rat. It is filed as in vivo, Wistar rats. Conditions: 3, 10, 30 and 60 mg/kg oral, six days. Here is the method:
A compound is tested in DNBS-induced colitis model in rat essentially as described in a method reported in the literature (Gut. 2002; 50(3):440-1). Briefly, Wistar rats are used in the experiments. Following the induction of distal colitis by intra-colonic instillation of DNBS, the test compound at doses of 3, 10, 30, 60 mg/kg (bid) is administered to rats orally for six days. The negative control group is treated with the vehicle alone without DNBS instillation. The vehicle-control group rats are DNBS-induced and treated with vehicle. In the positive control group, sulfasalazine is orally administered to the rats at 300 mg/kg daily for six consecutive days. Animals are euthanized 24 h after the final treatment. Colon-to-body weight ratio and colonic damage scores are calculated for each animal. Vehicle treatment of rats results in a progressive worsening of clinical symptoms, achieving a maximum colonic damage score of 6.1±0.6 and colon-to-body weight ratio-colon length of 0.96±0.10 on day 7 after instillation. In this DNBS-induced inflammatory bowel disease model, rats treated with Example 2 at doses of 3, 10, 30 and 60 mg/kg show a marked reduction in colonic damage scores, colon-to-body weight-to-colon length ratio with more than 30% reduction.

Assay [2] has as its system HT-29 human colon cancer xenograft. Description: Anti-tumor effects in human colon cancer HT-29 xenograft with/without CPT-11. It is filed as in vivo, Balb/c nu/nu mice. Here is the method:
IKKβ inhibitor has been reported to repress the HT-29 tumor growth when in combination with CPT-11 (Lagadec P, Griessinger E, Nawrot M P, et al. Br. J. Cancer (2008) 98, 335-344). The anti-tumor effect of the compound is then examined in a human colon cancer HT-29 xenograft in combination with CPT-11. The compound is tested for its anti-tumor effects in a human colon cancer HT-29 xenograft with/without the co-administration of CPT-11 essentially as described in a method reported in the literature (Lagadec P, Griessinger E, Nawrot M P, et al. Br. J. Cancer (2008) 98, 335-344).
The HT-29 human colorectal adenocarcinoma cell line is obtained from ATCC and cultured in McCoy's 5a medium containing 10% fetal calf serum. Male Balb/c nu/nu mice (6-7 weeks old) are injected subcutaneously in the right lateral flank with 0.1 mL of cell suspension containing 3.0×10^6 cells. Mice are divided into six groups, seven days after cell implantation. The test compound is orally administered twice a day at 60 and 20 mg/kg. CPT-11 at 20 mg/kg is peritoneally administered twice a week. In combination treatment, CPT-11 is given 1 h after the administration of the test compound. […] Two orthogonal diameters of the tumor are measured with digital vernier calipers three times a week. Tumor volume (TV) is measured and recorded during treatment period by the formula: TV=LengthxWidth^2/2. […]

With `Cl.O=C(NC1CC1)c1cccc2[nH]c(-c3nc(N[C@@H]4CCC[C@H]4O)ncc3Cl)cc12` [Example 2, 2-{5-Chloro-2-[(1R,2R)-2-hydroxycyclopentylamino]pyrimidin-4-yl}-N-cyclopropyl-1H-indole-4-carboxamide hydrochloride], in assay [1], the “arthritis scores and hind paws volume” value was “significantly attenuates collagen induced arthritis”. In the assay with PLP-139-151 induced EAE (10 and 30 mg/kg), the body weight loss result is on record as “improves”. Moreover, in the assay on PLP-139-151 induced EAE (Mus musculus, 3, 10, and 30 mg/kg oral twice daily, read-out: ED50, EAE clinical score), the ED50 (commonly the dose that gives a 50% effect, or the effect in half of the subjects) came to 3.7 mg/kg. For the same compound, the “reduction in colonic damage scores, colon-to-body weight-to-colon length ratio” value in the assay with DNBS-induced colitis is “more than 30%”.

Regarding `O=C(NC1CC1)c1cccc2[nH]c(-c3nc(N[C@@H]4CCC[C@@H]4O)ncc3Cl)cc12` [Example 1, 2-{5-Chloro-2-[(1R,2S)-2-hydroxycyclopentylamino]pyrimidin-4-yl}-N-cyclopropyl-1H-indole-4-carboxamide hydrochloride], in assay [2] (60 or 20 mg/kg p.o. + CPT-11 20 mg/kg i.p., P<0.05), the “HT-29 tumor growth, combination with CPT-11” value is listed as “enhances the anti-tumor effect of CPT-11”. Besides, the “HT-29 tumor growth, single agent” value in assay [2] (60 or 20 mg/kg, p.o., twice a day) is “does not inhibit HT-29 tumor growth”.
